Structures are written as SMILES. Where only a bound is given, the exact number is not on record here.

The first experiment deals with EGFR (mouse) (UniProt P00533). The settings on record: balb/c 3t3.
With `Oc1ccc(-c2n[nH]c3ncnc(Nc4cccc(Cl)c4)c23)cc1`, the IC50 (in general, the midpoint of a concentration-inhibition curve) was over 10 µM.

The compound `Oc1cccc(-c2n[nH]c3ncnc(Nc4cccc(Cl)c4)c23)c1` showed an IC50 of over 10 µM.

Take `Clc1cccc(Nc2ncnc3[nH]nc(-c4ccccc4)c23)c1`: the IC50 is over 10 µM.

Consider `Clc1cccc(Nc2ncnc3[nH]nc(NCc4ccccc4)c23)c1`, for which the IC50 is over 10 µM.

In turn, `COc1cccc(Nc2n[nH]c3ncnc(Nc4cccc(Cl)c4)c23)c1` displayed an IC50 of over 10 µM.

The compound `c1ccc(Nc2ncnc3[nH]nc(Nc4ccccc4)c23)cc1` had an IC50 of over 10 µM.

As to `Nc1ncnc2c1c(-c1ccccc1)nn2-c1ccccc1`, the IC50 was over 10 µM.

As for `Oc1ccc(Nc2n[nH]c3ncnc(Nc4cccc(Cl)c4)c23)cc1`, the IC50 is over 10 µM.

`Nc1ccc(-c2n[nH]c3ncnc(Nc4cccc(Cl)c4)c23)cc1` had an IC50 of over 10 µM.

Compound `COc1cccc(CNc2n[nH]c3ncnc(Nc4cccc(Cl)c4)c23)c1` came in with an IC50 of over 10 µM.

As to `Nc1nc(N)c2c(Nc3cccc(Cl)c3)n[nH]c2n1`, the IC50 was over 10 µM.

On to `CC(C)(C)OC(=O)Nc1ccc(-c2n[nH]c3ncnc(Nc4cccc(Cl)c4)c23)cc1`, for which the IC50 is over 10 µM.

For `COc1ccc(-c2n[nH]c3ncnc(Nc4cccc(Cl)c4)c23)cc1`, the IC50 is over 10 µM.

`COc1ccc(CNc2n[nH]c3ncnc(Nc4cccc(Cl)c4)c23)cc1`: the IC50 is over 10 µM.

`Clc1cccc(Nc2n[nH]c3ncnc(Nc4cccc(Br)c4)c23)c1` had an IC50 of over 10 µM.

As for `Clc1cccc(Nc2n[nH]c3ncnc(Oc4cccc(Cl)c4)c23)c1`, the IC50 is 10 µM.

`Oc1cccc(Nc2n[nH]c3ncnc(Nc4cccc(Cl)c4)c23)c1`: the IC50 is over 10 µM.

Turning to `Clc1cccc(Nc2n[nH]c3ncnc(Nc4ccccc4)c23)c1`, the IC50 is over 10 µM.

Take `Clc1cccc(Nc2n[nH]c3ncnc(NCc4ccccc4)c23)c1`: the IC50 was over 10 µM.

On to `Nc1cccc(-c2n[nH]c3ncnc(Nc4cccc(Cl)c4)c23)c1`, for which the IC50 is over 10 µM.

Regarding `Nc1ncnc2[nH]nc(Nc3cccc(Cl)c3)c12`, the IC50 was over 10 µM.

Take `Clc1cccc(CNc2n[nH]c3ncnc(Nc4cccc(Cl)c4)c23)c1`: the IC50 is over 10 µM.

Turning to `O=[N+]([O-])c1cccc(-c2n[nH]c3ncnc(Nc4cccc(Cl)c4)c23)c1`, the IC50 was over 10 µM.

The compound `Cc1cccc(Nc2ncnc3[nH]nc(Nc4cccc(Cl)c4)c23)c1` gave a concentration for half-maximal inhibition (IC50) of over 10 µM.

In a further experiment the target is EGFR (UniProt P00533).
Chain of EGFR (P00533 whole entry, looked up): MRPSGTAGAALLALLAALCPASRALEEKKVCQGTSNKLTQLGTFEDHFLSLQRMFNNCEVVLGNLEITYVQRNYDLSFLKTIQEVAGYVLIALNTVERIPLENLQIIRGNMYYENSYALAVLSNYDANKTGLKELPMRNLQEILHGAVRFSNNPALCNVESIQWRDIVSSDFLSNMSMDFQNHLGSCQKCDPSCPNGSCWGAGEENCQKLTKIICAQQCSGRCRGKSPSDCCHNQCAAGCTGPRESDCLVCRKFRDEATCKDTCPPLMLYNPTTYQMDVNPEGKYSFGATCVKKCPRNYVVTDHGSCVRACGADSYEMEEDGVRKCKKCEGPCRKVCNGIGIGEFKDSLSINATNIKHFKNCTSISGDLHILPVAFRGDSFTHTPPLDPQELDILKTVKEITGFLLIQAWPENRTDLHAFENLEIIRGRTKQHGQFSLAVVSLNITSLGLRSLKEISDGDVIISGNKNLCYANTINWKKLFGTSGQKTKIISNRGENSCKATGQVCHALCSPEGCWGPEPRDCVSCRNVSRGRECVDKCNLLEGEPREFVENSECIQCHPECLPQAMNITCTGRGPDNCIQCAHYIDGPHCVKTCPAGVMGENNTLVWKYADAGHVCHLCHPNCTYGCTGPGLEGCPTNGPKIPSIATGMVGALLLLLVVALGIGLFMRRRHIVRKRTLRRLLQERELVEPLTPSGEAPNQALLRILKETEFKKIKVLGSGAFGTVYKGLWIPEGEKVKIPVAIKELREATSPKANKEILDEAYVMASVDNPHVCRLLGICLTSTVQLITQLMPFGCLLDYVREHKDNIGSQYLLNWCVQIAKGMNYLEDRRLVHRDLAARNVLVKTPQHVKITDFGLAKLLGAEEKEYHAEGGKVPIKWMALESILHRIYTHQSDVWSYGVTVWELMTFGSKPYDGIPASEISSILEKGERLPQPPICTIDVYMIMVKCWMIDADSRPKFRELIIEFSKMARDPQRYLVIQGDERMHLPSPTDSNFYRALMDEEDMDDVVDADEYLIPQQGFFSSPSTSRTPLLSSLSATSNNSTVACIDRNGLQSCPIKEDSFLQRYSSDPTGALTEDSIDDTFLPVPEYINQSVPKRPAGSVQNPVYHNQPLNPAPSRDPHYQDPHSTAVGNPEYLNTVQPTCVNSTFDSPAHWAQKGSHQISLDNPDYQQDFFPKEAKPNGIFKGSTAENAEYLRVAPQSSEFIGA
Conditions: not given
As for `Cc1c(C)n(C)c2ncnc(Nc3cccc(Cl)c3)c12`, the IC50 amounted to 0.45 µM.

The next experiment deals with EGFR (mouse) (UniProt P00533). The settings on record: balb/mk.
Regarding `Nc1ncnc2c1c(-c1ccccc1)nn2-c1ccccc1`, the IC50 was over 50 µM.

In turn, `Clc1cccc(Nc2n[nH]c3ncnc(Oc4cccc(Cl)c4)c23)c1` gave an IC50 of over 50 µM.

Take `O=[N+]([O-])c1cccc(-c2n[nH]c3ncnc(Nc4cccc(Cl)c4)c23)c1`: the IC50 is over 50 µM.

The values are drawn from the Kinase Knowledgebase extract (Sharma et al. 2016).
